Reference: patent US8815812B2, “Synthetic arginine substituted peptides and their use” (Inger Mattsby-Baltzer, priority 2007, dated 2014)
Where no end group is shown, it is not given here.

Columns and labels:
Experiment in all cases: Antimicrobial assay (MMC99) in 1% Bactopeptone
Format in all cases: cell-based
Details in all cases: 99% reduction of the inoculum
E. coli = test system: E. coli
Description: (§1) [NT] […] Washed cells were suspended in 1% Bactopeptone (BP) (Difco, USA). The concentration of bacterial or fungal cells was spectrophotometrically adjusted. Peptides serially diluted in BP by twofold steps were added in duplicate or triplicate to the wells of a microtiterplate (200 μl per well). The bacterial or yeast cell solutions were added in 10 μl volumes to give a final concentration of approximately 2×10^5 cells per ml. The concentration of the stock solution was always checked by viable counts. The microplate was incubated at 37° C. in a humid chamber for 2 h unless otherwise stated. Five μl were taken from each well and added as a drop onto a blood agar plate and incubated over night at 37° C. The concentration of lactoferrin or peptide causing a 99% reduction of the inoculum was defined as the MMC99.

C. albicans = test system: C. albicans
Description: as §1

S. aureus = test system: S. aureus
Description: as §1

“GRRRRSVQWCAVSQPEATKCFQWQRNMRKVR (cysteine pairing not given here) [HLBD31]” was tested, and the MMC99 (E. coli; 2 h) was >100 µg/mL, the MMC99 (E. coli; 24 h) was 50 µg/mL and the MMC99 (C. albicans; 2 h) was 25 µg/mL. The MMC99 (C. albicans; 24 h) was 38 µg/mL, the MMC99 (S. aureus; 2 h) was 100 µg/mL and the MMC99 (S. aureus; 24 h) was 100 µg/mL.
